According to US10898469B2, “Imidazolylamide derivative” (Sumitomo Dainippon Pharma Co., Ltd., priority 2016, dated 2021):
Structures can show the parent of a compound that is named as a salt. Where two headings read alike, the source gives them in different places. Each block holds one compound with its values, some of them ahead of it.

Assays:
Format in all cases: cell-based, human
HT-29 cells = assay: Inhibition test for sphere-forming ability of cancer cells (Test Example 1), HT-29; settings: for IC50: read-out: IC50 (μmol/L) HT-29 (Sphere IC50 value); for (100%-inhibition rate of cell proliferation) at 1 μmol/L, HT-29: value with %
Excerpt: (§1) The reliable methods established for measuring the self-renewal ability of cells which is one of the CSC's properties include a method for measuring the sphere-forming ability of cancer cells in non-adherent condition in the absence of serum (Cancer Res 65, 5506-5511 (2005)). Human colorectal cancer-derived HCT-116 cells, human colon-adenocarcinoma-derived HT-29 cells, and human pharyngeal cancer-derived FaDu cells were available from American Type Culture Collection (ATCC). HCT-116 cells and HT-29 cells were cultured at 37° C. under 5% CO2 using the McCoy's 5a medium containing 10% fetal bovine serum (FBS) and 1% penicillin/streptomycin, and FaDu cells were cultured at 37° C. under 5% CO2 using the MEM medium containing 10% FBS, 1% non-essential amino acid, 1% sodium pyruvate, and 1% penicillin/streptomycin. HCT-116 cells, HT-29 cells, and FaDu cells were seeded in a 384 Well Black Clear Bottom Ultra-Low Attachment Microplate (Corning Cat. No. 3827) in an amount of 350-800 cells/well using the DMEM/F12 medium containing 2% B27 supplement (GIBCO), 20 ng/mL epidermal growth factor (EGF) (peprotech), 10 ng/mL basic fibroblast growth factor (bFGF) (peprotech), 5 μg/mL insulin (Sigma), and 1% penicillin/streptomycin. Each test compound was added into each well to adjust the final concentration of DMSO to 0.1%, and the cells were cultured for 4 days. The number of viable cells in each well was then measured with CellTiter-Glo® Luminescent Cell Viability Assay (Promega) to calculate the concentration of each test compound for 50% inhibition of cell proliferation (Sphere IC50 value; μmol/L).
(§2) The experiment of Test Example 1 was performed for each compound of each Example. The concentration of each test compound for 50% inhibition of cell proliferation (Sphere IC50 value; μmol/L) is shown in the following Table.

FaDu cells = assay: Inhibition test for sphere-forming ability of cancer cells (Test Example 1), FaDu; settings: for IC50: read-out: IC50 (μmol/L) FaDu (Sphere IC50 value); for (100%-inhibition rate of cell proliferation) at 1 μmol/L, FaDu: value with %
Excerpt: as §1, §2

HCT-116 cells = assay: Inhibition test for sphere-forming ability of cancer cells (Test Example 1), HCT-116; settings: HCT-116 cells; for IC50: read-out: IC50 (μmol/L) HCT-116 (Sphere IC50 value); for (100%-inhibition rate of cell proliferation) at 1 μmol/L, HCT-116: value with %
Excerpt: as §1, §2

[1] = concentration for 50% inhibition of cell proliferation
[2] = Homo sapiens, concentration for 50% inhibition of cell proliferation

- IC50 (HT-29 cells; [1]): 0.65 µmol/L
- IC50 (FaDu cells; [1]): 0.79 µmol/L
- IC50 (HCT-116 cells; [1]): 0.81 µmol/L
Compound: CCOc1ccc(C(=O)Nc2cn(Cc3cccc(OC(F)(F)F)c3)cn2)cn1 [Example 213]

- IC50 (HT-29 cells; [2]): 3.58 µmol/L
- IC50 (FaDu cells; [2]): 3.13 µmol/L
- IC50 (HCT-116 cells; [2]): 6.76 µmol/L
Compound: Nc1ccc(/C=C/C(=O)Nc2cn(Cc3cccc(Cl)c3)cn2)cc1 [Example 3, (E)-3-(4-Aminophenyl)-N-(1-(3-chlorobenzyl)-1H-imidazol-4-yl)acrylamide Dihydrochloride]

Compound: O=C(Nc1cn(Cc2cccc(C(F)(F)F)c2)cn1)c1ccc(F)nc1 [Example 226]
- (100%-inhibition rate of cell proliferation) at 1 μmol/L, HT-29 (HT-29 cells): 91.7%
- (100%-inhibition rate of cell proliferation) at 1 μmol/L, FaDu (FaDu cells): 87.9%
- (100%-inhibition rate of cell proliferation) at 1 μmol/L, HCT-116 (HCT-116 cells): 45.7%

- IC50 (HT-29 cells; [1]): 0.81 µmol/L
- IC50 (FaDu cells; [1]): 5.33 µmol/L
- IC50 (HCT-116 cells; [1]): > 10 µmol/L
Compound: O=C(Nc1cn(Cc2cccc(Cl)c2)cn1)c1ccc(OC2CCCC2)nc1 [Example 208]

- IC50 (HT-29 cells; [2]): 2.61 µmol/L
- IC50 (FaDu cells; [2]): 0.89 µmol/L
- IC50 (HCT-116 cells; [2]): > 10 µmol/L
Compound: COC(=O)c1ccc(/C=C/C(=O)Nc2cn(Cc3cccc(Cl)c3)cn2)cn1 [Example 25, Methyl (E)-5-(3-((1-(3-chlorobenzyl)-1H-imidazol-4-yl)amino)-3-oxoprop-1-en-1-yl)picolinate]

- IC50 (HT-29 cells; [1]): 3.74 µmol/L
- IC50 (FaDu cells; [1]): 8.64 µmol/L
- IC50 (HCT-116 cells; [1]): 7.31 µmol/L
Compound: O=C(Nc1cn(Cc2cccc(C(F)(F)F)c2)cn1)c1ccc(CC(F)F)nc1 [Example 187]

Compound: COc1ccc(Cn2cnc(NC(=O)c3ccc(OC)c(OC)c3)c2)cc1 [Example 164]
- (100%-inhibition rate of cell proliferation) at 1 μmol/L, HT-29 (HT-29 cells): 89.0%
- (100%-inhibition rate of cell proliferation) at 1 μmol/L, FaDu (FaDu cells): 92.3%
- (100%-inhibition rate of cell proliferation) at 1 μmol/L, HCT-116 (HCT-116 cells): 37.4%

- IC50 (HT-29 cells; [2]): 5.67 µmol/L
- IC50 (FaDu cells; [2]): 1.92 µmol/L
- IC50 (HCT-116 cells; [2]): 7.21 µmol/L
Compound: Cc1cccc(/C=C/C(=O)Nc2cn(Cc3cccc(OC(F)(F)F)c3)cn2)c1 [Example 110]

Compound: COc1ccc(C(=O)Nc2cn(Cc3cccc(OC(F)(F)F)c3)cn2)cc1OC [Example 166]
- (100%-inhibition rate of cell proliferation) at 1 μmol/L, HT-29 (HT-29 cells): 33.0%
- (100%-inhibition rate of cell proliferation) at 1 μmol/L, FaDu (FaDu cells): 23.8%
- (100%-inhibition rate of cell proliferation) at 1 μmol/L, HCT-116 (HCT-116 cells): 36.8%

- IC50 (HT-29 cells; [1]): 6.45 µmol/L
- IC50 (FaDu cells; [1]): 7.19 µmol/L
- IC50 (HCT-116 cells; [1]): 7.56 µmol/L
Compound: COc1cc(/C=C/C(=O)Nc2cn(Cc3cccc(Cl)c3)cn2)c([N+](=O)[O-])cc1OC [Example 75]

Compound: COc1ccc(C(=O)Nc2cn(Cc3cc(Cl)nc(Cl)c3)cn2)cc1OC [Example 170]
- (100%-inhibition rate of cell proliferation) at 1 μmol/L, HT-29 (HT-29 cells): 24.9%
- (100%-inhibition rate of cell proliferation) at 1 μmol/L, FaDu (FaDu cells): 27.1%
- (100%-inhibition rate of cell proliferation) at 1 μmol/L, HCT-116 (HCT-116 cells): 33.8%

- IC50 (HT-29 cells; [2]): 0.01 µmol/L
- IC50 (FaDu cells; [2]): 0.06 µmol/L
- IC50 (HCT-116 cells; [2]): 0.45 µmol/L
Compound: CC(=O)Nc1ccc(/C=C/C(=O)Nc2cn(Cc3cccc(Cl)c3)cn2)cn1 [Example 20, (E)-3-(6-Acetylaminopyridin-3-yl)-N-(1-(3-chlorobenzyl)-1H-imidazol-4-yl)acrylamide]

- IC50 (HT-29 cells; [1]): 0.65 µmol/L
- IC50 (FaDu cells; [1]): 0.81 µmol/L
- IC50 (HCT-116 cells; [1]): 0.76 µmol/L
Compound: Cc1ccc(F)c(Cn2cnc(NC(=O)c3ccc(OCC(F)(F)F)nc3)c2)c1F [Example 223]

- IC50 (HT-29 cells; [1]): 3.3 µmol/L
- IC50 (FaDu cells; [1]): 4.36 µmol/L
- IC50 (HCT-116 cells; [1]): 0.94 µmol/L
Compound: O=C(/C=C/c1cccc(F)c1)Nc1cn(Cc2cccc(Cl)c2)cn1 [Example 57]

Compound: COc1ccc(C(=O)Nc2cn(Cc3ccc(Cl)s3)cn2)cc1OC [Example 173]
- (100%-inhibition rate of cell proliferation) at 1 μmol/L, HT-29 (HT-29 cells): 21.6%
- (100%-inhibition rate of cell proliferation) at 1 μmol/L, FaDu (FaDu cells): 21.4%
- (100%-inhibition rate of cell proliferation) at 1 μmol/L, HCT-116 (HCT-116 cells): 29.5%

- IC50 (HT-29 cells; [1]): 8.11 µmol/L
- IC50 (FaDu cells; [1]): 0.82 µmol/L
- IC50 (HCT-116 cells; [1]): 8.38 µmol/L
Compound: O=C(/C=C/c1ccccc1O)Nc1cn(Cc2cccc(Cl)c2)cn1 [Example 54]

- IC50 (μmol/L) HT-29 (Sphere IC50 value) (HT-29 cells; [1]): 25.90 µmol/L
- IC50 (μmol/L) FaDu (Sphere IC50 value) (FaDu cells; [1]): 13.73 µmol/L
- IC50 (μmol/L) HCT-116 (Sphere IC50 value) (HCT-116 cells; [1]): 17.96 µmol/L
Compound: COc1cc(/C=C/C(=O)Nc2cn(Cc3cccc(Cl)c3)cn2)cc(OC)c1 [Example 85]

- IC50 (HT-29 cells; [1]): 3.23 µmol/L
- IC50 (FaDu cells; [1]): 0.99 µmol/L
- IC50 (HCT-116 cells; [1]): > 10 µmol/L
Compound: O=C(/C=C/c1ccc2ccccc2c1)Nc1cn(Cc2cccc(Cl)c2)cn1 [Example 95]

- IC50 (HT-29 cells; [1]): 0.62 µmol/L
- IC50 (FaDu cells; [1]): 0.74 µmol/L
- IC50 (HCT-116 cells; [1]): 1.61 µmol/L
Compound: O=C(/C=C/c1cnc2ccccc2c1)Nc1cn(Cc2cccc(Cl)c2)cn1 [Example 92]

- IC50 (HT-29 cells; [2]): 0.05 µmol/L
- IC50 (FaDu cells; [2]): 0.07 µmol/L
- IC50 (HCT-116 cells; [2]): 0.1 µmol/L
Compound: O=C(/C=C/c1ccc(C(F)(F)F)nc1)Nc1cn(Cc2cccc(Cl)c2)cn1 [Example 44]
